# According to patent publication US8129037B2, “Phenanthrene derivative” (priority 2005, dated 2012):
# Assay: Solubility comparison in common organic solvents
# Type: physicochemical
# Details: qualitative
# Description: In contrast, phenanthrenes which are structurally analogous but unsubstituted in the 9- and 10-position have distinctly poorer solubility in organic solvents. This leads to considerable problems in the purification, since substantially larger apparatus and distinctly larger amounts of solvent are required for this purpose.
smiles,measurement,value
Cc1ccc(-c2ccc3c(c2)c(C)c(C)c2cc(-c4ccc(C)c5ccccc45)ccc23)c2ccccc12 [Example P1],Solubility in common organic solvents,moderate to good
